Our source for the IC50 values is patent US12692223B2, “Phenyl-sulfamoyl-benzoic acid derivatives as ERAP1-modulators” (GREY WOLF THERAPEUTICS LIMITED, priority 2021, dated 2026).

The assay deals with T1, ERAP1 (Homo sapiens, UniProt Q9NZ08).
T1 construct: Purified ERAP1(37-941)-10His (ERAP1)
As to the kind of experiment: ERAP1 mediated hydrolysis of an amide substrate measured in a biochemical system (10-mer inhibition assay). As to conditions: purified ERAP1(37-941)-10His; 10-mer substrate; 23° C. for 1 h; excitation 279 nm, emission 355 nm; read-out: IC50 vs Decapeptide WRVYEKC(Dnp)ALK-acid (where Dnp is Dinitrophenyl maleimide) (10-mer). On the procedure:
Biological Assay 1: ERAP1 Mediated Hydrolysis of an Amide Substrate Measured in a Biochemical System
• 1× Assay buffer (AB): 25 mM Bis-tris propane, 0.05% w/v • Hydroxypropylmethylcellulose pH 7.75 made with Optima grade water • Decapeptide WRVYEKC(Dnp)ALK-acid (where Dnp is Dinitrophenyl maleimide) (10-mer) • L-Leucine 7-amido-4-methylcoumarin (L-AMC) • Purified ERAP1(37-941)-10His (ERAP1) Assay Procedure:
12.5 μL ERAP1 enzyme in 1×AB was combined with 250 nL test compound in DMSO. 12.5 μL of either 240 μM L-AMC in 1×AB or 100 μM 10-mer in 1×AB was added to the reaction and incubated at 23° C. for 1 h. For detection, plates were read at excitation 365 nm and emission 442 nm (L-AMC) or excitation 279 nm and emission 355 nm (10-mer). Compound IC50 was determined using a 4-parameter equation.

T1 sequence (Q9NZ08 37-941): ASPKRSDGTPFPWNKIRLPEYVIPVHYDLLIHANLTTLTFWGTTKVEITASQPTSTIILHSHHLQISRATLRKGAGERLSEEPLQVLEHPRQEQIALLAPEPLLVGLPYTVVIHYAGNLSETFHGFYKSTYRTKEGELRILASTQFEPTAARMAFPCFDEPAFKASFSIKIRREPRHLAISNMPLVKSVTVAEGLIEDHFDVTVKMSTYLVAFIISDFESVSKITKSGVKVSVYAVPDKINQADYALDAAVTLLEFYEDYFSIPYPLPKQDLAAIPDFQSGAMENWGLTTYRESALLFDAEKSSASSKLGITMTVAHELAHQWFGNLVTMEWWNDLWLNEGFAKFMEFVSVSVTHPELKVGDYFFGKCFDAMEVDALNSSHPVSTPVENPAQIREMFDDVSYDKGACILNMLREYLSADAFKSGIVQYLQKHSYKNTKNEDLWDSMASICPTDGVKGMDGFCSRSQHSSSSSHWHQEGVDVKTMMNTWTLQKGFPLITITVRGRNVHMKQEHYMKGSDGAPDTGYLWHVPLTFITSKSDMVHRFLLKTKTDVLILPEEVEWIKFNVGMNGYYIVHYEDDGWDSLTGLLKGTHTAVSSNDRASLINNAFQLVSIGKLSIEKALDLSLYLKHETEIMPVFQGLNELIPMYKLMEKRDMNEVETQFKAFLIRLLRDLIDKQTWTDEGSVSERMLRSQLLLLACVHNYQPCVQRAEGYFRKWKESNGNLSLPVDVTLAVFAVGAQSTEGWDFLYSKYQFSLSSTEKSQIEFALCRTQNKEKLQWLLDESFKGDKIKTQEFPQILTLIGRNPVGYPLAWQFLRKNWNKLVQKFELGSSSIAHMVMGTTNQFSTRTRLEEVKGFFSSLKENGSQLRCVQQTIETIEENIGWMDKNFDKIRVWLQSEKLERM

`COc1ccc(C(=O)O)cc1S(=O)(=O)Nc1cc(C(F)(F)F)ccc1OC1CCCC1` [Example 2, 3-(N-(2-(cyclopentyloxy)^−5-(trifluoromethyl)phenyl)sulfamoyl)-4-methoxybenzoic acid]: the IC50 was > 5 nM. Then `COc1ccc(C(=O)O)cc1S(=O)(=O)Nc1cc(C(F)(F)F)ccc1OC1CCCCC1` [Example 3, 3-(N-(2-(cyclohexyloxy)^−5-(trifluoromethyl)phenyl)sulfamoyl)-4-methoxybenzoic acid], with > 5 nM; and `O=C(O)c1ccc(C2CC2)c(S(=O)(=O)Nc2cc(C(F)(F)F)ccc2OC2CCCC2)c1` [Example 4, 3-(N-(2-(cyclopentyloxy)^−5-(trifluoromethyl)phenyl)sulfamoyl)-4-cyclopropylbenzoic acid], with 1 to 5 nM; and `CCc1ccc(C(=O)O)cc1S(=O)(=O)Nc1cc(C(F)(F)F)ccc1OC1CCCC1` [Example 5, 3-(N-(2-(cyclopentyloxy)−5-(trifluoromethyl)phenyl)sulfamoyl)-4-ethylbenzoic acid], with > 5 nM. Then `N#Cc1ccc(OC2CCCC2)c(NS(=O)(=O)c2cc(C(=O)O)ccc2C2CC2)c1` [Example 6, 3-(N-(5-cyano-2-(cyclopentyloxy)phenyl)sulfamoyl)-4-cyclopropylbenzoic acid], with 1 to 5 nM; and `CCc1ccc(C(=O)O)cc1S(=O)(=O)Nc1cc(C(F)(F)F)ccc1OC1CCC1` [Example 7, 3-(N-(2-cyclobutoxy-5-(trifluoromethyl)phenyl)sulfamoyl)-4-ethylbenzoic acid], with > 5 nM; and `O=C(O)c1ccc(C2CC2)c(S(=O)(=O)Nc2cc(-n3cnnn3)ccc2OC2CCCC2)c1` [Example 8, 3-(N-(2-(cyclopentyloxy)-5-(1H-tetrazol-1-yl)phenyl)sulfamoyl)-4-cyclopropylbenzoic acid], with < 1 nM.

Take `O=C(O)c1ccc(C2CC2)c(S(=O)(=O)Nc2cc(-n3cnnn3)c(F)cc2OC2CCCC2)c1` [Example 9, 3-(N-(2-(cyclopentyloxy)-4-fluoro-5-(1H-tetrazol-1-yl)phenyl)sulfamoyl)-4-cyclopropylbenzoic acid]: the IC50 was < 1 nM.

Turning to `O=C(O)c1ccc(C2CC2)c(S(=O)(=O)Nc2cc(-n3cnnn3)c(Cl)cc2OC2CCCC2)c1` [Example 10, 3-(N-(4-chloro-2-(cyclopentyloxy)−5-(1H-tetrazol-1-yl)phenyl)sulfamoyl)-4-cyclopropylbenzoic acid], the IC50 was < 1 nM. Then `N#Cc1cc(NS(=O)(=O)c2cc(C(=O)O)ccc2C2CC2)c(OC2CCCC2)cc1F` [Example 11, 3-(N-(5-cyano-2-(cyclopentyloxy)-4-fluorophenyl)sulfamoyl)-4-cyclopropylbenzoic acid], with < 1 nM. Then `N#Cc1cc(NS(=O)(=O)c2cc(C(=O)O)ccc2C2CC2)c(OC2CCC2)cc1Cl` [Example 12, 3-(N-(4-chloro-5-cyano-2-cyclobutoxyphenyl)sulfamoyl)-4-cyclopropylbenzoic acid], with < 1 nM; and `N#Cc1cc(NS(=O)(=O)c2cc(C(=O)O)ccc2C2CC2)c(OC2CC(F)(F)C2)cc1Cl` [Example 13, 3-(N-(4-chloro-5-cyano-2-(3,3-difluorocyclobutoxy)phenyl)sulfamoyl)-4-cyclopropylbenzoic acid], with 1 to 5 nM; and `N#Cc1cc(F)c(OC2CCCC2)c(NS(=O)(=O)c2cc(C(=O)O)ccc2C2CC2)c1` [Example 14, 3-(N-(5-cyano-2-(cyclopentyloxy)−3-fluorophenyl)sulfamoyl)-4-cyclopropylbenzoic acid], with > 5 nM. Then `Cc1cc(C#N)cc(NS(=O)(=O)c2cc(C(=O)O)ccc2C2CC2)c1OC1CCCC1` [Example 15, 3-(N-(5-cyano-2-(cyclopentyloxy)−3-methylphenyl)sulfamoyl)-4-cyclopropylbenzoic acid], with > 5 nM; and `N#Cc1cc(NS(=O)(=O)c2cc(C(=O)O)c(F)cc2C2CC2)c(OC2CCCC2)cc1Cl` [Example 16, 5-(N-(4-chloro-5-cyano-2-(cyclopentyloxy)phenyl)sulfamoyl)-4-cyclopropyl-2-fluorobenzoic acid], with < 1 nM.
